# The source made the active and inactive calls. The rule behind the calls is not given here.
# System: rodent carcinogenicity bioassays, tumor incidence
# Test: CCRIS carcinogenicity studies
# Conditions: Dose: 0, Dose: 0
# Method in brief: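 NCI-built, expert-reviewed records of carcinogenicity and related test outcomes (mutagenicity, tumor promotion/inhibition) compiled from published and report sources, historical span 1985-2011, not updated.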
structure (smiles),measurement,setting,value
CCCCOCCOCCOCc1cc2c(cc1CCC)OCO2,carcinogen call,"Species: MOUSE, Strain/Sex: B6C3F1/FEMALE, Route: ORAL, 1036, 2804 PPM IN DIET, TWA, 1036, 2804 PPM IN DIET, TWA",inactive; negative
same,carcinogen call,"Species: MOUSE, Strain/Sex: B6C3F1/MALE, Route: ORAL, 1036, 2804 PPM IN DIET, TWA, 1036, 2804 PPM IN DIET, TWA",inactive; negative
same,carcinogen call,"Species: MOUSE, Strain/Sex: CD-1/FEMALE, Route: ORAL, 0.6, 1.2% IN DIET FOR 52 WK (STUDY DURATION: 52 WK), 0.6, 1.2% IN DIET FOR 52 WK (STUDY DURATION: 52 WK), Tumor Site: Type of Lesion: LIVER: HEPATOCELLULAR ADENOMA, HEPATOCELLULAR CARCINOMA",active; positive
same,carcinogen call,"Species: MOUSE, Strain/Sex: CD-1/FEMALE, Route: ORAL, 30, 100, 300 MG/KG/D IN DIET FOR 79 WK (STUDY DURATION: 79 WK), 30, 100, 300 MG/KG/D IN DIET FOR 79 WK (STUDY DURATION: 79 WK), Tumor Site: Type of Lesion: LIVER: HEPATOCELLULAR ADENOMA",active; positive
same,carcinogen call,"Species: MOUSE, Strain/Sex: CD-1/MALE, Route: ORAL, 0.6, 1.2% IN DIET FOR 12 MO (STUDY DURATION: 12 MO), 0.6, 1.2% IN DIET FOR 12 MO (STUDY DURATION: 12 MO), Tumor Site: Type of Lesion: LIVER: HEPATOCELLULAR ADENOMA, HEPATOCELLULAR CARCINOMA, HEMANGIOENDOTHELIAL SARCOMA (SMALL), HEMANGIOENDOTHELIAL SARCOM",active; positive
same,carcinogen call,"Species: MOUSE, Strain/Sex: CD-1/MALE, Route: ORAL, 0.6, 1.2% IN DIET FOR 52 WK (STUDY DURATION: 52 WK), 0.6, 1.2% IN DIET FOR 52 WK (STUDY DURATION: 52 WK), Tumor Site: Type of Lesion: LIVER: HEPATOCELLULAR ADENOMA, HEPATOCELLULAR CARCINOMA",active; positive
same,carcinogen call,"Species: MOUSE, Strain/Sex: CD-1/MALE, Route: ORAL, 30, 100, 300 MG/KG/D IN DIET FOR 79 WK (STUDY DURATION: 79 WK), 30, 100, 300 MG/KG/D IN DIET FOR 79 WK (STUDY DURATION: 79 WK), Tumor Site: Type of Lesion: LIVER: HEPATOCELLULAR ADENOMA",active; positive
same,carcinogen call,"Species: RAT, Strain/Sex: F344/FEMALE, Route: ORAL, 0.5, 1% IN DIET FOR 2 YR (STUDY DURATION: 110 WK), 0.5, 1% IN DIET FOR 2 YR (STUDY DURATION: 110 WK)",inactive; negative
same,carcinogen call,"Species: RAT, Strain/Sex: F344/FEMALE, Route: ORAL, 0.6, 1.2, 2.4% IN DIET FOR 96 WK (STUDY DURATION: 96 WK), 0.6, 1.2, 2.4% IN DIET FOR 96 WK (STUDY DURATION: 96 WK), Tumor Site: Type of Lesion: LIVER: HEPATOCELLULAR ADENOMA, HEPATOCELLULAR CARCINOMA",active; positive
same,carcinogen call,"Species: RAT, Strain/Sex: F344/FEMALE, Route: ORAL, 5000, 10000 PPM IN DIET, 5000, 10000 PPM IN DIET",inactive; negative
same,carcinogen call,"Species: RAT, Strain/Sex: F344/MALE, Route: ORAL, 0.5, 1% IN DIET FOR 2 YR (STUDY DURATION: 110 WK), 0.5, 1% IN DIET FOR 2 YR (STUDY DURATION: 110 WK)",inactive; negative
same,carcinogen call,"Species: RAT, Strain/Sex: F344/MALE, Route: ORAL, 0.6, 1.2, 2.4% IN DIET FOR 95 WK (STUDY DURATION: 95 WK), 0.6, 1.2, 2.4% IN DIET FOR 95 WK (STUDY DURATION: 95 WK), Tumor Site: Type of Lesion: LIVER: HEPATOCELLULAR ADENOMA, HEPATOCELLULAR CARCINOMA",active; positive
same,carcinogen call,"Species: RAT, Strain/Sex: F344/MALE, Route: ORAL, 5000, 10000 PPM IN DIET, 5000, 10000 PPM IN DIET",inactive; negative
same,carcinogen call,"Species: RAT, Strain/Sex: SPRAGUE-DAWLEY/FEMALE, Route: ORAL, 30, 100, 500 MG/KG/D IN DIET FOR 104-105 WK (STUDY DURATION: 105 WK), 30, 100, 500 MG/KG/D IN DIET FOR 104-105 WK (STUDY DURATION: 105 WK)",inactive; negative
same,carcinogen call,"Species: RAT, Strain/Sex: SPRAGUE-DAWLEY/MALE, Route: ORAL, 30, 100, 500 MG/KG/D IN DIET FOR 104-105 WK (STUDY DURATION: 105 WK), 30, 100, 500 MG/KG/D IN DIET FOR 104-105 WK (STUDY DURATION: 105 WK)",inactive; negative
CCn1nc(C)c2c1C(c1ccccc1)=NCC(=O)N2,carcinogen call,"Species: MOUSE, Strain/Sex: CD-1/FEMALE, Route: ORAL, 15, 150, MG/KG IN DIET FOR 78 WK (STUDY DURATION: 78 WK), 15, 150, MG/KG IN DIET FOR 78 WK (STUDY DURATION: 78 WK)",inactive; negative
same,carcinogen call,"Species: MOUSE, Strain/Sex: CD-1/MALE, Route: ORAL, 15, 150, MG/KG IN DIET FOR 78 WK (STUDY DURATION: 78 WK), 15, 150, MG/KG IN DIET FOR 78 WK (STUDY DURATION: 78 WK), Tumor Site: Type of Lesion: LIVER: ADENOMA",active; positive
same,carcinogen call,"Species: RAT, Strain/Sex: CD/FEMALE, Route: ORAL, 15, 150 MG/KG IN DIET FOR 104 WK (STUDY DURATION: 104 WK), 15, 150 MG/KG IN DIET FOR 104 WK (STUDY DURATION: 104 WK)",inactive; negative
same,carcinogen call,"Species: RAT, Strain/Sex: CD/MALE, Route: ORAL, 15, 150 MG/KG IN DIET FOR 104 WK (STUDY DURATION: 104 WK), 15, 150 MG/KG IN DIET FOR 104 WK (STUDY DURATION: 104 WK)",inactive; negative
CN(C)CCN(Cc1ccsc1)c1ccccn1,carcinogen call,"Species: RAT, Strain/Sex: SPRAGUE-DAWLEY/FEMALE, Route: ORAL, 500, 1000 PPM IN DRINKING WATER 5D/WK FOR LIFE (STUDY DURATION: 572-731 D), 500, 1000 PPM IN DRINKING WATER 5D/WK FOR LIFE (STUDY DURATION: 572-731 D)",inactive; negative
same,carcinogen call,"Species: RAT, Strain/Sex: SPRAGUE-DAWLEY/MALE, Route: ORAL, 500, 1000 PPM IN DRINKING WATER 5D/WK FOR LIFE (STUDY DURATION: 515-576 D), 500, 1000 PPM IN DRINKING WATER 5D/WK FOR LIFE (STUDY DURATION: 515-576 D)",inactive; negative
Cc1c(N(C)C)c(=O)n(-c2ccccc2)n1C,carcinogen call,"Species: MOUSE, Strain/Sex: B6C3F1/FEMALE, Route: ORAL, 0.04, 0.08% IN DRINKING WATER FOR 100 WK (STUDY DURATION: 104 WK), 0.04, 0.08% IN DRINKING WATER FOR 100 WK (STUDY DURATION: 104 WK)",inactive; negative
same,carcinogen call,"Species: MOUSE, Strain/Sex: B6C3F1/MALE, Route: ORAL, 0.04, 0.08% IN DRINKING WATER FOR 100 WK (STUDY DURATION: 104 WK), 0.04, 0.08% IN DRINKING WATER FOR 100 WK (STUDY DURATION: 104 WK)",inactive; negative
ClC(Br)Br,carcinogen call,"Species: MOUSE, Strain/Sex: B6C3F1/FEMALE, Route: GAVAGE, 50, 100 MG/KG IN CORN OIL 5 D/WK FOR 105 WK (STUDY DURATION: 105 WK), 50, 100 MG/KG IN CORN OIL 5 D/WK FOR 105 WK (STUDY DURATION: 105 WK), Tumor Site: Type of Lesion: LIVER: HEPATOCELLULAR ADENOMA, HEPATOCELLULAR ADENOMA OR CARCINOMA",active; positive
same,carcinogen call,"Species: MOUSE, Strain/Sex: B6C3F1/MALE, Route: GAVAGE, 50, 100 MG/KG IN CORN OIL 5 D/WK FOR 105 WK (STUDY DURATION: 105 WK), 50, 100 MG/KG IN CORN OIL 5 D/WK FOR 105 WK (STUDY DURATION: 105 WK), Tumor Site: Type of Lesion: LIVER: HEPATOCELLULAR CARCINOMA, HEPATOCELLULAR ADENOMA OR CARCINOMA",equivocal
same,carcinogen call,"Species: RAT, Strain/Sex: F344/FEMALE, Route: GAVAGE, 40, 80 MG/KG IN CORN OIL 5 D/WK FOR 104 WK (STUDY DURATION: 105 WK), 40, 80 MG/KG IN CORN OIL 5 D/WK FOR 104 WK (STUDY DURATION: 105 WK)",inactive; negative
same,carcinogen call,"Species: RAT, Strain/Sex: F344/MALE, Route: GAVAGE, 40, 80 MG/KG IN CORN OIL 5 D/WK FOR 104 WK (STUDY DURATION: 105 WK), 40, 80 MG/KG IN CORN OIL 5 D/WK FOR 104 WK (STUDY DURATION: 105 WK)",inactive; negative
O=[N+]([O-])c1cc([N+](=O)[O-])c2ccc(S(=O)(=O)O)cc2c1O,carcinogen call,"Species: MOUSE, Strain/Sex: SWISS-WEBSTER/FEMALE, Route: DERMAL, 1% IN 0.1 ML DISTILLED WATER 1/WK FOR 18 MO (STUDY DURATION: 18 MO)",inactive; negative
same,carcinogen call,"Species: MOUSE, Strain/Sex: SWISS-WEBSTER/MALE, Route: DERMAL, 1% IN 0.1 ML DISTILLED WATER 1/WK FOR 18 MO (STUDY DURATION: 18 MO)",inactive; negative
O=[N+]([O-])c1c2ccccc2cc2c3ccccc3c3ccccc3c12,carcinogen call,"Species: MOUSE, Strain/Sex: B6C3F1/MALE, Route: INTRAPERITONEAL, 400 NMOL IN 35 µL DMSO ON DAYS 1 (1/7 TOTAL DOSE), 8 (2/7 TOTAL DOSE), AND 15 (4/7 TOTAL DOSE) AFTER BIRTH (STUDY DUR",inactive; negative

# Reference: PubChem BioAssay AID1259411 (Chemical Carcinogenesis Research Information System (CCRIS), 2018)
